A short description of the data set: molar enthalpy of transition or fusion. Conditions: 298.15 K; Crystal; Flow calorimetry.

± gives the expanded uncertainty stated by the source.

Data on one compound can be found in the NIST ThermoML archive (doi:10.1016/j.jct.2009.08.010).

Consider `Cc1cccc2c1sc1ccccc12` [4-methyldibenzothiophene], for which the “molar enthalpy of transition or fusion” value is 21.6 ± 0.335 kcal/mol.
